Measurements as given in patent US20220016241A1, “COMPOSITIONS AND METHODS FOR REDUCING ANTIGEN-SPECIFIC IMMUNOGENICITY” (The Research Foundation for The State University of New York, priority 2013, published 2022).

System: IL-12p70
Test: Cytokine profile of BMDCs in vitro, IL-12p70 ELISA
Format: cell-based, HA mice
Conditions: 1 μg/ml FVIII with 50 mM OPLS, 48 hours, n=4
Procedure: Generation of bone marrow derived dendritic cells (BMDC): Bone marrow was isolated from 6 to 8 week old naïve HA. Briefly, bone marrow was cultured in RPMI media supplemented with […] (low endotoxin), 2-mercaptoethanol, Pen/Strep and […] GMCSF. Media was changed on days 3, 6 and 8 of culture and DCs were used on day 9. BMDC are then harvested and used as needed. To verify the differentiation of bone marrow cells into DCs, CD11c surface expression was confirmed by flow cytometry using anti-CD11c-FITC antibody with appropriate isotope controls.
Effects of OPLS on cytokine profile of BMDCs in vitro: The effects of OPLS on cytokine secretion by dendritic cells were investigated. On day 9 BMDCs, generated as above, were treated with FVIII as an antigen in the presence of increasing dose of OPLS. Changes in production of pro-inflammatory cytokines TNF-α and IL12p70 as well as the regulatory cytokine TGF-β were monitored as a function of dose. BMDCs were exposed to 1 μg/ml FVIII with increasing dose of OPLS (0, 0.5, 1, 10, 25, 50 mM). 1 M stock of OPLS was prepared by adding the appropriate amount of OPLS directly to RPMI media, and pH was adjusted using sterile 3N and 1N NaOH. […] TGF-β, TNF-α and IL-12p70 concentrations were determined using standard ELISA (R&D System Inc. Minneapolis, Minn., USA or Invitrogen […], Calif.).

N[C@@H](COP(=O)(O)O)C(=O)O [OPLS, O-Phospho-L-Serine]
IL-12p70 production by BMDC: total shut down
